Test results published in PMC5725665, “Discovery of a Highly Selective Cell‐Active Inhibitor of the Histone Lysine Demethylases KDM2/7” (Angewandte Chemie (International Ed. in English), 2017).

What was measured:
KDM7A = biological target: T1, KDM7A (Homo sapiens, UniProt Q6ZMT4); experiment: AlphaScreen demethylase assay; format: biochemical
T1 construct: isolated enzyme
T1 sequence (Q6ZMT4 1-941): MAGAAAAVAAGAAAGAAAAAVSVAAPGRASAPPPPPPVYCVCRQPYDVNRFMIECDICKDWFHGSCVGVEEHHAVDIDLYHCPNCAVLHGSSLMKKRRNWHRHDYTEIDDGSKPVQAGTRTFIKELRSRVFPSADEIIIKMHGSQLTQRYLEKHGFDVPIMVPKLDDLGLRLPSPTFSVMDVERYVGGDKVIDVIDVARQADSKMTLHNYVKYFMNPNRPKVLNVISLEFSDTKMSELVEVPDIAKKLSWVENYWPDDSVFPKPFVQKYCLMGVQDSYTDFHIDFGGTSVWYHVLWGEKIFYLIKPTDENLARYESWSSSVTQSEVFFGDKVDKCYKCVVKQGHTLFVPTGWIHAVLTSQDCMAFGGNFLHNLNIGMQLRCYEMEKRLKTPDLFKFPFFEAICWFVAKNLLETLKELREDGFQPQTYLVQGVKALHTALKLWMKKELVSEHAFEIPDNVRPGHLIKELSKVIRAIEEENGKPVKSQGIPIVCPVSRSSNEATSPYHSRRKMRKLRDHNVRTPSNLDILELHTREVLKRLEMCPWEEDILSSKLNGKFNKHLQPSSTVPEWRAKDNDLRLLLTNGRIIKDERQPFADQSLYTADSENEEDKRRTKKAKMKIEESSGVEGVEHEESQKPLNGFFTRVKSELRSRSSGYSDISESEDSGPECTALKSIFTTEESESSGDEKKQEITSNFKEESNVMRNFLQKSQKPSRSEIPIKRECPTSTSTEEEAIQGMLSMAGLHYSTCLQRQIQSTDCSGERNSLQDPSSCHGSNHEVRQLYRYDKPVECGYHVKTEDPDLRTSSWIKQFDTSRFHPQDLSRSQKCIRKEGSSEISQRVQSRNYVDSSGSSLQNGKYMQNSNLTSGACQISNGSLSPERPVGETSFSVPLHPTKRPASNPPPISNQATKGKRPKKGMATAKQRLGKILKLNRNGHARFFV

CHD1 = CHD1 (Homo sapiens, UniProt O14646); experiment: biochemical; design: AlphaScreen peptide displacement assay, methyl-lysine reader domains; details: read-out: IC50 reader domains, AlphaScreen
Description: (§1) S106 1.76 1.63 2.01 133 2.78 6.13 6.23 3.55 2.63 1.75 1.31 Table S-3: Summary of indoles tested. IC50 values correspond to KDM2A inhibition by AlphaScreen. 3.2 Selectivity-screening against other epigenetic writer and reader proteins Methyl-Lysine Reader domain assays. Fluorescence polarisation assays for methyl-lysine reader domains were carried out as described. AlphaScreen peptide displacement assays were performed according to manufacturer’s protocol (PerkinElmer, USA) with minor modifications. All reagents were diluted in 25 mM HEPES, 100 mM NaCl, 0.1 % BSA, pH 7.4 and 0.05 % CHAPS and allowed to equilibrate to room temperature prior to addition to plates. An 11-point 1:2.0

KDM4A Tudor domain = biological target: T2, KDM4A Tudor domain (Homo sapiens, UniProt O75164); experiment: biochemical; design: AlphaScreen peptide displacement assay, methyl-lysine reader domains; details: read-out: IC50 reader domains, AlphaScreen
T2 construct: Tudor domain
T2 sequence (O75164 1-1064): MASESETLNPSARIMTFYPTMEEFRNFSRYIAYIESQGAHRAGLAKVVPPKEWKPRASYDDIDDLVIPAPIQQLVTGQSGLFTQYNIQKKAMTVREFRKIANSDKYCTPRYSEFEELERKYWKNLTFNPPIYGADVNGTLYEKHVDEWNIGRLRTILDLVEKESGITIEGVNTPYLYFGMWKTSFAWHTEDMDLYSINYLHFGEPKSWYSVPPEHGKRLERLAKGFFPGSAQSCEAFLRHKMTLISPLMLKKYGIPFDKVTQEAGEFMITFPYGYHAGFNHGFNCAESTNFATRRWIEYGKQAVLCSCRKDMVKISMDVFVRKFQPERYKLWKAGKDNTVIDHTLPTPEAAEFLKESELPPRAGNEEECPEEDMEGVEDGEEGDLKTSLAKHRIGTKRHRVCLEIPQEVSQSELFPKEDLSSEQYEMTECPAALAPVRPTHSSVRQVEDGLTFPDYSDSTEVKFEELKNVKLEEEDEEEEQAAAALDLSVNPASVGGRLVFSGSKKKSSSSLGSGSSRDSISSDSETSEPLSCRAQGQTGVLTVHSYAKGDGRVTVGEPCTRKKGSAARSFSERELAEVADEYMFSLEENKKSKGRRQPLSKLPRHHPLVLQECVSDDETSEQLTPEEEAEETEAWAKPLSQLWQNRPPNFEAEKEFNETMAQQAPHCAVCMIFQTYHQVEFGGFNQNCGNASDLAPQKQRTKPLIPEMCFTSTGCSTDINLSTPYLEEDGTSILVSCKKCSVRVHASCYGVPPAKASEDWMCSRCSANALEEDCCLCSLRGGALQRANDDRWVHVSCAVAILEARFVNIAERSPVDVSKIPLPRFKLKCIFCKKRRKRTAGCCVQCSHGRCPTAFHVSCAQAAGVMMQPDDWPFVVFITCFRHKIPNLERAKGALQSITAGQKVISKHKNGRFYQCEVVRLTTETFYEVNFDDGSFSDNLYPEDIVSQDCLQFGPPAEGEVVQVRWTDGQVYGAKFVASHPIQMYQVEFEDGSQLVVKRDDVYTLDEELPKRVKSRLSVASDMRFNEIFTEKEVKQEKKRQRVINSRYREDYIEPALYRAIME
Description: as §1

KDM7B PHD-finger domain = biological target: T3, KDM7B PHD-finger domain (Homo sapiens, UniProt Q9UPP1); experiment: biochemical; design: AlphaScreen peptide displacement assay, methyl-lysine reader domains; details: read-out: IC50 reader domains, AlphaScreen
T3 construct: gene PHF8; PHD-finger domain
Description: as §1

SGF29 = biological target: T4, SGF29 (Homo sapiens, UniProt Q96ES7); experiment: biochemical; design: AlphaScreen peptide displacement assay, methyl-lysine reader domains; details: read-out: IC50 reader domains, AlphaScreen
T4 sequence (Q96ES7 1-293): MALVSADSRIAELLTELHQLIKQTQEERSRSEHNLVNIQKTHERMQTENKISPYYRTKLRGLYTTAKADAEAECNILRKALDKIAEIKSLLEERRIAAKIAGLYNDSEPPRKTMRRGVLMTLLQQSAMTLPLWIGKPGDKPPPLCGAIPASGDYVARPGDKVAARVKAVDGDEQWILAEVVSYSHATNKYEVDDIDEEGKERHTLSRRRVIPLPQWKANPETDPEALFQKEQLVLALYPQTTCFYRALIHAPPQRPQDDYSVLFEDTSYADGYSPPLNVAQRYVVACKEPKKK
Description: as §1

SPIN1 = SPIN1 (Homo sapiens, UniProt Q9Y657); experiment: biochemical; design: AlphaScreen peptide displacement assay, methyl-lysine reader domains; details: read-out: IC50 reader domains, AlphaScreen
Description: as §1

Chain of SPIN1 (Q9Y657 whole entry, the tested form may be a part): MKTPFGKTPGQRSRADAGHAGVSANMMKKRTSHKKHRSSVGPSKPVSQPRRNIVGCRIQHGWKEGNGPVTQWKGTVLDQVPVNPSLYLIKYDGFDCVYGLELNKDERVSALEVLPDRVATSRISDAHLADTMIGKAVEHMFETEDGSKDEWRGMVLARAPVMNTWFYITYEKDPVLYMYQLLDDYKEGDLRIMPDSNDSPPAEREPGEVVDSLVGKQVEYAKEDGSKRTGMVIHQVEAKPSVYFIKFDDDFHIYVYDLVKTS
Chain of CHD1 (O14646 whole entry, the tested form may be a part): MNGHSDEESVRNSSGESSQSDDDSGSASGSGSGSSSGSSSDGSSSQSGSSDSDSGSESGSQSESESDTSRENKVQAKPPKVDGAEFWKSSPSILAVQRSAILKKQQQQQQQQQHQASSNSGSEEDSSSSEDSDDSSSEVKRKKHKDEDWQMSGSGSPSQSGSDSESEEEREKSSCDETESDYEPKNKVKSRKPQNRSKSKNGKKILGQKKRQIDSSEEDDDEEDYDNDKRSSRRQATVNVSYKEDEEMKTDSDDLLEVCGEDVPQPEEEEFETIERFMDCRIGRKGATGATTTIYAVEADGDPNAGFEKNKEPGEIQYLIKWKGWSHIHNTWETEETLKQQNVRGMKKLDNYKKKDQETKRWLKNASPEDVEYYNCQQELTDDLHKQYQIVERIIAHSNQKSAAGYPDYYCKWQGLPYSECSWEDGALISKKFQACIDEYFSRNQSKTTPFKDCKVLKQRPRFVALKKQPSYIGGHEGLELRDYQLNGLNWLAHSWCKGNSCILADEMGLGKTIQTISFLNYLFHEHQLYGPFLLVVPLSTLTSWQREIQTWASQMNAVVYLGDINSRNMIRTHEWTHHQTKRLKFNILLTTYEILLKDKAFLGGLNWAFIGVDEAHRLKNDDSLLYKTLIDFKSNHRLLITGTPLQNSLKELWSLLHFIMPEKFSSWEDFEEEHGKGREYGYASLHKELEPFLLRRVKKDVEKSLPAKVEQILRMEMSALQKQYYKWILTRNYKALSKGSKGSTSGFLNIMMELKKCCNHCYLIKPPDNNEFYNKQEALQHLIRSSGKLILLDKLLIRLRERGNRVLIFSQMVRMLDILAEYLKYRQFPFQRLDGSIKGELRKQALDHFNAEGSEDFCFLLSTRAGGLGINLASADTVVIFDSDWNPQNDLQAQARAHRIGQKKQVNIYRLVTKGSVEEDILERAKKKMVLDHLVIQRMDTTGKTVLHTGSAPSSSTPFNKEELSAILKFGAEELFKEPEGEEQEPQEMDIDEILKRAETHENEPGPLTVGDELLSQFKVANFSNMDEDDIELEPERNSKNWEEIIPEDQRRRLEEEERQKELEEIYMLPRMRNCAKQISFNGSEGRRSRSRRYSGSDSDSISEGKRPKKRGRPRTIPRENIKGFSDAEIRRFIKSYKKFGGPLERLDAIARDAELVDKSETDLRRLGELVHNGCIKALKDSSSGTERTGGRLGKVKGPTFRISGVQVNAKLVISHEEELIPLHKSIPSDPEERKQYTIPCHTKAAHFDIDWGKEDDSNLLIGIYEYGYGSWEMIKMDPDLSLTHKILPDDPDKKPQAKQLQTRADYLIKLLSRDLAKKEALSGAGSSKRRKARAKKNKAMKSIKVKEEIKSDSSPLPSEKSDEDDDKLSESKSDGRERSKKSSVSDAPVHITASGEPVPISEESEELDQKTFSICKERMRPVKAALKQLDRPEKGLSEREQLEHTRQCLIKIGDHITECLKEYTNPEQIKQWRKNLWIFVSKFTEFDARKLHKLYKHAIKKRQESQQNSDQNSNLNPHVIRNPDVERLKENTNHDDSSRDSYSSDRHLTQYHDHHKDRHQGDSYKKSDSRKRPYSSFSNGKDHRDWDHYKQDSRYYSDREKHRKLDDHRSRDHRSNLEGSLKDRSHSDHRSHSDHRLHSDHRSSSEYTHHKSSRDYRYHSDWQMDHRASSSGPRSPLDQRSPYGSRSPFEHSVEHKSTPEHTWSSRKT
T3 sequence (Q9UPP1 whole entry, the tested form may be a part): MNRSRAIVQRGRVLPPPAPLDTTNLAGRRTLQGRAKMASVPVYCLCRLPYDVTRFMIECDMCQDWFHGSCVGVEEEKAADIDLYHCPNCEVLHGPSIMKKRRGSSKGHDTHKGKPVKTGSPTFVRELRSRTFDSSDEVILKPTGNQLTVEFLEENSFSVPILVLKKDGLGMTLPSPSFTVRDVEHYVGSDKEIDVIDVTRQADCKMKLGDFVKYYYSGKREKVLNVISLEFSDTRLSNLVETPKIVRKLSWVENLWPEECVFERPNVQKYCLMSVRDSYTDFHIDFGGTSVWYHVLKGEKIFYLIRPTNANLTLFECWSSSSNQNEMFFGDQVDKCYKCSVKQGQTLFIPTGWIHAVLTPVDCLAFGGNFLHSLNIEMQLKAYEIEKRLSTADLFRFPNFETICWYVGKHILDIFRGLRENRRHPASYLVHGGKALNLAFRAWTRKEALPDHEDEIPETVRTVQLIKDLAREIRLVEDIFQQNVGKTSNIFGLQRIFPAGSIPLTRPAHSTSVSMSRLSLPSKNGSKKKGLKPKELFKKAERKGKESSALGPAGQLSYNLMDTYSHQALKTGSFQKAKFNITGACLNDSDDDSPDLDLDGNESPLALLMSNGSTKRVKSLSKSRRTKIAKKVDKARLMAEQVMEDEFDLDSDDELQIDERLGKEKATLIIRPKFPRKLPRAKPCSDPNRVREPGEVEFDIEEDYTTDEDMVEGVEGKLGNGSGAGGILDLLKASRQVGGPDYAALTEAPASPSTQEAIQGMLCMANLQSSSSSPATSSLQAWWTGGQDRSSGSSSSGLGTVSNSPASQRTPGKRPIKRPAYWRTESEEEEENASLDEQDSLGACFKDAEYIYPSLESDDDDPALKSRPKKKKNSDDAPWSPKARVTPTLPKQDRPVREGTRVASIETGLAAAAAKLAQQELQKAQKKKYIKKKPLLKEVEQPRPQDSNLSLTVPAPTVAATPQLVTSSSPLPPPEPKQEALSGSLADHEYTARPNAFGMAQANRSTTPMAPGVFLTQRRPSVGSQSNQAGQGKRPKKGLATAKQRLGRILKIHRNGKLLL

IC50 (KDM7A): 0.19 µM | IC50 (CHD1): > 20 µM | IC50 (KDM4A Tudor domain): > 20 µM | IC50 (KDM7B PHD-finger domain): > 20 µM | IC50 (SGF29): > 20 µM | IC50 (SPIN1): > 20 µM
SMILES: CC(=O)N1c2ccccc2[C@@](C#N)(c2ccccc2)[C@@H]1c1cncc(CCCCCCCN2CCCC2)c1 [(S,S)-6]
